Measured values: ChEMBL document CHEMBL1201862, “PubChem BioAssay data set” (2004)
Calls of active or inactive are those of the source.

Experiments:
[1] = molecular target: Intestinal-type alkaline phosphatase (Mus musculus, UniProt P24822); test: PubChem AID 488874; format: functional
[2] = molecular target: T1, Intestinal-type alkaline phosphatase (Homo sapiens, UniProt P09923); test: human intestinal alkaline phosphatase activators, dose response, biochemical, luminescence, uHTS hits (AID 463120); format: functional
T1 sequence (P09923 whole entry): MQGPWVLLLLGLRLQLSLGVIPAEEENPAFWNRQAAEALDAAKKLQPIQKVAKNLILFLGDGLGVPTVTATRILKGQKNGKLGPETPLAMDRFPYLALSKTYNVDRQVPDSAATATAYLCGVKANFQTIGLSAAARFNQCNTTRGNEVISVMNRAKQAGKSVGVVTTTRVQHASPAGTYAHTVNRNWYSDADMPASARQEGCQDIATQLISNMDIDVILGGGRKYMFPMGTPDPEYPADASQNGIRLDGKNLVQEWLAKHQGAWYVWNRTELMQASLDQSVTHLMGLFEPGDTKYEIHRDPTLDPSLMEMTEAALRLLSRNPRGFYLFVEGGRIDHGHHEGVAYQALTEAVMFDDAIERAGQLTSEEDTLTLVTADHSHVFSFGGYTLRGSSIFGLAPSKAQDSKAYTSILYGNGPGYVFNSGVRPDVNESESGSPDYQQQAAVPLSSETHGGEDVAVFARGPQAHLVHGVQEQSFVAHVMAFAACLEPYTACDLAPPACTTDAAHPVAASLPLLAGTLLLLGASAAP

[3] = molecular target: T1, Intestinal-type alkaline phosphatase; test: activation of human intestinal alkaline phosphatase – biochemical, luminescent, uHTS hits, set 2, dose response (AID 488817); format: functional;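 note: potency of activators that raise enzyme activity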
[4] = molecular target: T2, Alkaline phosphatase, tissue-nonspecific isozyme (Homo sapiens, UniProt P05186); test: activation of tissue-nonspecific alkaline phosphatase – biochemical, TNAP isozyme, human IAP uHTS hits, selectivity assay for human IAP activator project, dose response (AID 488886); format: functional;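 note: potency of compounds raising TNAP activity as a selectivity check on IAP activators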
T2 sequence (P05186 whole entry): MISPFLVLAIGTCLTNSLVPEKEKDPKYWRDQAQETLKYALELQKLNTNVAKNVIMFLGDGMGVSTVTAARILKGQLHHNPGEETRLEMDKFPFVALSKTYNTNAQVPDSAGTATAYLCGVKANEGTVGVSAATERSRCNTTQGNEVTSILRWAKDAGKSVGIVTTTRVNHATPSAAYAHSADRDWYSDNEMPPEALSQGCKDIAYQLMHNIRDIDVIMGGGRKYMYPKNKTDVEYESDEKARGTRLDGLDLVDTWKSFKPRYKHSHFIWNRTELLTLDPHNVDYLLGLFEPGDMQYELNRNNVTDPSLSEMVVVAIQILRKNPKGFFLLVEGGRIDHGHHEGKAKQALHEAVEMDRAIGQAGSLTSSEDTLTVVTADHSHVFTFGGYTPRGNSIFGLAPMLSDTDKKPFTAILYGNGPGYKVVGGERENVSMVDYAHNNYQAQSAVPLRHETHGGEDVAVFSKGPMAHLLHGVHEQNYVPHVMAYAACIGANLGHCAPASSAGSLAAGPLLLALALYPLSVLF

H9c2 = test: cells; format: functional, cell-based; details: Rattus norvegicus, H9c2, Myocardium;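 note: confirmatory concentration-response retest of ultra-high-throughput screening hits for modulation of myocardial damage; cell death induced by hydrogen peroxide oxidative stress; compound pretreatment for 60 min then peroxide exposure for 2 h; potency is for protecting the cells against peroxide damage rather than for killing them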

Sequence of Intestinal-type alkaline phosphatase (Mus musculus, UniProt P24822) (P24822 whole entry): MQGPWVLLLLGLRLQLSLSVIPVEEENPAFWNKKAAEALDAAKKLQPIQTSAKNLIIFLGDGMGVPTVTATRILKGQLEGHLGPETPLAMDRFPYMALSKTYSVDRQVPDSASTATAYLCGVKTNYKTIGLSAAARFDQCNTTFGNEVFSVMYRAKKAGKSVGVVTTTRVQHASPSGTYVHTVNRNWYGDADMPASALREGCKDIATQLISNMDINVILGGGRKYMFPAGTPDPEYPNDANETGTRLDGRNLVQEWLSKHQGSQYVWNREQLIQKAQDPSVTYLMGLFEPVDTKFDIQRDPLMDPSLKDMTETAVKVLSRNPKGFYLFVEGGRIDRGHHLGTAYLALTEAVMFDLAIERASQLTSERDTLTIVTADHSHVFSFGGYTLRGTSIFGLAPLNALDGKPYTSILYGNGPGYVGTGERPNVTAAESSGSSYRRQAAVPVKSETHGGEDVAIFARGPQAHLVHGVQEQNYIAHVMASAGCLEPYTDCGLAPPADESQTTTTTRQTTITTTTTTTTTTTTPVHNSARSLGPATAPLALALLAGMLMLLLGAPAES

Q: For `CCOCCCNC(=O)CCC(=O)NNc1nc2ccccc2c2nc(-c3ccccc3)nn12`, which IC50 [1] is on record?
A: The IC50 was 29.6 µM (active).

Q: And the EC50 [2]?
A: Its EC50 is 12.6 µM (active).

Q: What about the EC50 [3] of the same compound?
A: Its EC50 is 15.2 µM (active).

Q: And the EC50 [4]?
A: The EC50 was 17.7 µM (active).

Q: What about the IC50 (H9c2) of the same compound?
A: Its IC50 is > 79 µM (inactive).
